What was measured:
[1] = system: anaesthetised piglet model; assay: blood gas and hemodynamic variables in anaesthetised piglets during i.v. infusion; format: in vivo; conditions: 60 min
Experimental: (§1) Food was withheld from the animals for twelve hours prior to the experiment, but they had free access to water. […] In addition, all animals were given an intravenous bolus of morphine 1 mg·kg^-1 and, following tracheotomy, pancuronium bromide 0.3 mg·kg^-1. […] After the last measurements, still under anaesthesia, the animals were killed with an overdose of potassium chloride. After induction of anaesthesia the animals were tracheotomised and ventilated through an 8 mm endotracheal tube (Mallincrodt Laboratories, Athlone, Ireland) with a Servo ventilator […] ([…], Solna, Sweden). Ventilation was maintained at 25 breaths per minute with a positive end-expiratory pressure of 5 cm of H2O. […] The body temperature was kept stable by means of a thermostat controlled heating pad and warmed intravenous infusions. After skin incisions, a catheter was introduced in the left external jugular vein and advanced to the right hepatic vein under fluoroscopic control. Its position was confirmed by a contrast injection. The right external jugular vein was used for placement of a central venous catheter and a 7F pulmonary artery thermodilution catheter. An arterial catheter was inserted in a subclavian branch and advanced to a central position. Through a small suprapubic incision, a urinary catheter was placed in the bladder. A cutdown was made to place an ultrasonic flow probe (Transonic Systems Inc., Ithaca, N.Y., USA) around the femoral artery and to cannulate the femoral vein for blood sampling. Arterial blood gases were analysed on an ABL300/OSM3 system (Radiometer, Copenhagen, Denmark). […] The column eluate was mixed with ninhydrin reagent for amino acid detection. […] Blood glucose was analysed on a Reflolux® II (Boehringer Mannheim, Germany), using the glucose-oxidase/peroxidase reaction. Arterial and hepatic venous blood was drawn for calculations of splanchnic blood flow. […] The mean value of at least three measurements was adopted. Calculation of splanchnic blood flow was carried out according to the constant dye infusion technique (10). […] Splanchnic plasma flow was calculated according to a formula derived from Fick's principle: [formula] […] Femoral artery plasma flow was calculated as blood flow (1-EVF). The turnover of amino acids, ammonium and urea were calculated as plasma flow times the arterio-venous plasma concentration difference with negative values indicating release and positive values uptake. After anaesthesia and surgical preparation the piglets were allowed a stabilisation period of one hour and randomly assigned to either Group 1 or Group 2.

splanchnic area = assay: splanchnic turnover (plasma flow times arterio-venous difference; negative = release, positive = uptake); format: in vivo, piglets; conditions: 60 min
Experimental: as §1

[2] = system: anaesthetised piglet model; assay: arterial plasma amino acid, NH4, urea and blood glucose concentrations in anaesthetised piglets; format: in vivo; conditions: for arterial glutamine level after 60 minutes (in words): after one hour of infusion of the single substance
Experimental: Food was withheld from the animals for twelve hours prior to the experiment, but they had free access to water. Anaesthesia was induced by an intramuscular injection of xylazine 2.2 mg·kg^-1, tiletamine 3 mg·kg^-1+zolazepam 3 mg·kg^-1 and atropine 0.04 mg·kg^-1. In addition, all animals were given an intravenous bolus of morphine 1 mg·kg^-1 and, following tracheotomy, pancuronium bromide 0.3 mg·kg^-1. […] After the last measurements, still under anaesthesia, the animals were killed with an overdose of potassium chloride. After induction of anaesthesia the animals were tracheotomised and ventilated through an 8 mm endotracheal tube (Mallincrodt Laboratories, Athlone, Ireland) with a Servo ventilator […] ([…], Solna, Sweden). Ventilation was maintained at 25 breaths per minute with a positive end-expiratory pressure of 5 cm of H2O. […] The body temperature was kept stable by means of a thermostat controlled heating pad and warmed intravenous infusions. After skin incisions, a catheter was introduced in the left external jugular vein and advanced to the right hepatic vein under fluoroscopic control. Its position was confirmed by a contrast injection. The right external jugular vein was used for placement of a central venous catheter and a 7F pulmonary artery thermodilution catheter. An arterial catheter was inserted in a subclavian branch and advanced to a central position. Through a small suprapubic incision, a urinary catheter was placed in the bladder. A cutdown was made to place an ultrasonic flow probe (Transonic Systems Inc., Ithaca, N.Y., USA) around the femoral artery and to cannulate the femoral vein for blood sampling. Arterial blood gases were analysed on an ABL300/OSM3 system (Radiometer, Copenhagen, Denmark). […] The column eluate was mixed with ninhydrin reagent for amino acid detection. […] Blood glucose was analysed on a Reflolux® II (Boehringer Mannheim, Germany), using the glucose-oxidase/peroxidase reaction. Arterial and hepatic venous blood was drawn for calculations of splanchnic blood flow. […] The mean value of at least three measurements was adopted. After anaesthesia and surgical preparation the piglets were allowed a stabilisation period of one hour and randomly assigned to either Group 1 or Group 2.

hind leg skeletal muscle = assay: hind leg turnover (plasma flow times arterio-venous difference; negative = release, positive = uptake); format: in vivo, piglets; conditions: Group 1; 60 min; Dosage 1: NH4+ 12.3 μmol·kg^−1·min^−1 i.v. alone
Experimental: Food was withheld from the animals for twelve hours prior to the experiment, but they had free access to water. […] In addition, all animals were given an intravenous bolus of morphine 1 mg·kg^-1 and, following tracheotomy, pancuronium bromide 0.3 mg·kg^-1. […] After the last measurements, still under anaesthesia, the animals were killed with an overdose of potassium chloride. After induction of anaesthesia the animals were tracheotomised and ventilated through an 8 mm endotracheal tube (Mallincrodt Laboratories, Athlone, Ireland) with a Servo ventilator […] ([…], Solna, Sweden). […] The body temperature was kept stable by means of a thermostat controlled heating pad and warmed intravenous infusions. After skin incisions, a catheter was introduced in the left external jugular vein and advanced to the right hepatic vein under fluoroscopic control. Its position was confirmed by a contrast injection. The right external jugular vein was used for placement of a central venous catheter and a 7F pulmonary artery thermodilution catheter. An arterial catheter was inserted in a subclavian branch and advanced to a central position. Through a small suprapubic incision, a urinary catheter was placed in the bladder. A cutdown was made to place an ultrasonic flow probe (Transonic Systems Inc., Ithaca, N.Y., USA) around the femoral artery and to cannulate the femoral vein for blood sampling. Arterial blood gases were analysed on an ABL300/OSM3 system (Radiometer, Copenhagen, Denmark). […] The column eluate was mixed with ninhydrin reagent for amino acid detection. […] Blood glucose was analysed on a Reflolux® II (Boehringer Mannheim, Germany), using the glucose-oxidase/peroxidase reaction. Arterial and hepatic venous blood was drawn for calculations of splanchnic blood flow. […] The mean value of at least three measurements was adopted. […] Femoral artery plasma flow was calculated as blood flow (1-EVF). The turnover of amino acids, ammonium and urea were calculated as plasma flow times the arterio-venous plasma concentration difference with negative values indicating release and positive values uptake. After anaesthesia and surgical preparation the piglets were allowed a stabilisation period of one hour and randomly assigned to either Group 1 or Group 2.

[3] = Group 2, Dosage 1: α-ketoglutarate 2.85 μmol·kg^−1·min^−1 i.v. alone
[4] = Group 2, 60 min, Dosage 1: α-ketoglutarate 2.85 μmol·kg^−1·min^−1 i.v. alone
[5] = Group 1, Dosage 1: NH4+ 12.3 μmol·kg^−1·min^−1 i.v. alone
[6] = Group 1, 60 min, Dosage 1: NH4+ 12.3 μmol·kg^−1·min^−1 i.v. alone

With `O=C(O)CCC(=O)C(=O)O` [α-KGA, α-ketoglutaric acid] the “Arterial pH” value [1, 3] was 7.47 ± 0.01, the C.O. [1, 3] was 144 ± 10 a ml · min^−1 kg^−1 and the PaCO2 [1, 3] was 5.27 ± 0.06 kPa. The “FE (%)-NH4^+, splanchinc” value (splanchnic area; [3]) was 28 ± 10%, the Glucose concentration [2, 4] was 5.6 ± 0.4 mmol/L and the “arterial Alanine concentration” value [2, 4] was 462 ± 34 µmol/L. For the same compound, the “arterial Arginine concentration” value [2, 4] was 75 ± 5 µmol/L, the “arterial Glutamate concentration” value [2, 4] was 264 ± 32 µmol/L and the “arterial Glutamine concentration” value [2, 4] was 361 ± 24 z μmol · L^−1. For the same compound, the “arterial Urea concentration” value [2, 4] was 2.7 ± 0.2 mmol/L, the “drop of arterial glutamine concentration compared to the baseline level” value ([2]; Group 2, after one hour of α-KGA infusion alone) was 9±2% and the “arterial glutamine level after 60 minutes (in words)” value [2] was “decreased”.

With `Cl.N` [NH4Cl, ammonium chloride] the “Arterial pH” value [1, 5] was 7.43 ± 0.01 a, the C.O. [1, 5] was 138 ± 17 mL/min/kg and the Leg blood flow [1, 5] was 4.7 ± 0.4 mL/min/kg. For the same compound, the PaCO2 [1, 5] was 5.18 ± 0.06 kPa, the Spl. blood flow [1, 5] was 43 ± 5 mL/min/kg and the Leg blood flow ([1]; Group 1, Dosage 1: NH4+ 12.3 μmol·kg^−1·min^−1 i.v. alone, listed as ammonium chloride) was 4.7 ± 0.4 a ml · min^−1 · kg^−1. The “Alanine turnover, splanchinc” value (splanchnic area; [5]) was 2.22 ± 0.28 µmol/min/kg, the “Arginine turnover, splanchinc” value (splanchnic area; [5]) was -0.23 ± 0.10 µmol/min/kg and the “FE (%)-NH4^+, splanchinc” value (splanchnic area; [5]) was 81 ± 4 a %. The “Glutamate turnover, splanchinc” value (splanchnic area; [5]) was -4.32 ± 0.28 µmol/min/kg, the “Glutamine turnover, splanchinc” value (splanchnic area; [5]) was 2.59 ± 0.56 µmol/min/kg and the “NH4^+ turnover, splanchinc” value (splanchnic area; [5]) was 3.09 ± 0.28 a μmol·min^−1·kg^−1. The “Total AA turnover, splanchinc” value (splanchnic area; [5]) was 3.93 ± 2.08 µmol/min/kg, the “Urea turnover, splanchinc” value (splanchnic area; [5]) was -3.2 ± 1.4 µmol/min/kg and the “Alanine turnover, hind leg” value (hind leg skeletal muscle) was -0.13 ± 0.04 µmol/min/kg. The “Arginine turnover, hind leg” value (hind leg skeletal muscle) was 0.01 ± 0.005 µmol/min/kg, the “FE (%)-NH4^+, hind leg” value (hind leg skeletal muscle) was 46 ± 3 a % and the “Glutamate turnover, hind leg” value (hind leg skeletal muscle) was 0.22 ± 0.03 µmol/min/kg. The “Glutamine turnover, hind leg” value (hind leg skeletal muscle) was -0.09 ± 0.04 µmol/min/kg, the “NH4^+ turnover, hind leg” value (hind leg skeletal muscle) was 0.22 ± 0.03 a μmol·min^−1·kg^−1 and the “Total AA turnover, hind leg” value (hind leg skeletal muscle) was 0.12 ± 0.23 µmol/min/kg. For the same compound, the “Urea turnover, hind leg” value (hind leg skeletal muscle) was 0.2 ± 0.2 µmol/min/kg, the Glucose concentration [2, 6] was 5.5 ± 0.5 mmol/L and the “arterial Alanine concentration” value [2, 6] was 412 ± 44 a μmol · L^−1. For the same compound, the “arterial Arginine concentration” value [2, 6] was 80 ± 8 µmol/L, the “arterial Glutamate concentration” value [2, 6] was 191 ± 20 µmol/L and the “arterial Glutamine concentration” value [2, 6] was 450 ± 26 a μmol · L^−1. The “arterial NH4^+ concentration” value [2, 6] was 135 ± 14 a μmol · L^−1, the “arterial Total AA concentration” value [2, 6] was 3034 ± 139 µmol/L and the “arterial Urea concentration” value [2, 6] was 3.4 ± 0.3 mmol/L. The “arterial glutamine level after 60 minutes (in words)” value [2] was “increased”.

Reference: patent publication US20020147237A1, “Preservation of bodily protein” (priority 2001, published 2002)
